According to patent US7582618B2 (priority 2002, dated 2009):
Values joined by “and” are separate entries in the source; they are usually repeats but may differ in a detail not shown here. Equal values may be shown once. Read-outs that look alike come from different tables or passages of the source.

Key:
[1] = test system: BVDV RNA; assay: Intracellular BVDV RNA by Real Time RT-PCR in de novo-infected MDBK cells; type: cell-based; settings: Bovine viral diarrhea virus isolates and strains, 18-hours post infection
[2] = In vitro stability in human plasma; settings: human plasma or crude human cytidine/deoxycytidine deaminase preparation, 37° C.
[3] = test system: HepG2 cells; assay: Mitochondria toxicity assay, lactic acid production
[4] = test system: Punta Toro A (LLC-MK2); assay: organism not typed; type: cell-based
[5] = test system: Sb-1; assay: microbe, parasite or virus in culture; type: cell-based, poliovirus Sabin type-1; settings: Enterovirus C
[6] = test system: CVA-9; assay: microbe, parasite or virus in culture; type: cell-based, Coxsackievirus A-9; settings: Coxsackievirus, read-out: EC50 CVA-9
[7] = test system: CVB-3; assay: microbe, parasite or virus in culture; type: cell-based, Coxsackievirus B-3; settings: Coxsackievirus, read-out: EC50 CVB-3
[8] = test system: BVDV (strain NADL) in MDBK cells; assay: BVDV cell protection assay (CPA); type: cell-based; settings: Bovine viral diarrhea virus isolates and strains
[9] = test system: BVDV New York-1 ncp in MDBK cells; assay: Yield reduction assay; type: cell-based, bovine viral diarrhea virus
[10] = Cytotoxicity (cell proliferation) assay; settings: bovine, MDBK kidney cells
[11] = test system: BVDV; assay: Antiviral test (Table 8b); type: cell-based; settings: Bovine viral diarrhea virus isolates and strains; table note: BHK for Bovine Viral Diarrhea Virus
[12] = Human bone marrow clonogenic assay
[13] = test system: BVDV NADL cp in MDBK cells; assay: Plaque reduction assay; type: cell-based; settings: Bovine viral diarrhea virus isolates and strains
Method: For each compound the effective concentration was determined in duplicate 24-well plates by plaque reduction assays. Cell monolayers were infected with 100 PFU/well of virus. Then, serial dilutions of test compounds in MEM supplemented with 2% inactivated serum and 0.75% of methyl cellulose were added to the monolayers. Cultures were further incubated at 37° C. for 3 days, then fixed with 50% ethanol and 0.8% Crystal Violet, washed and air-dried. Then plaques were counted to determine the concentration to obtain 90% virus suppression.

[14] = test system: MCMV (MEF); assay: organism not typed; type: cell-based
[15] = Cytotoxicity on uninfected cells in parallel to the CPA; settings: bovine, uninfected MDBK kidney cells
[16] = Cytotoxicity (cell proliferation) assay; settings: human, Huh7 hepatoma cells
[17] = Cytotoxicity assay; settings: human
[18] = Cytotoxicity (Table 10); type: cell-based; settings: human, Daudi cells, EBV row
[19] = test system: Parainfluenzatype 3 (MA-104); assay: organism not typed; type: cell-based; settings: MA104
[20] = Clinical pharmacokinetics of mCyd after oral val-mCyd; settings: human, plasma, mCyd in plasma; for AUC(0-inf): AUC0-inf (Mean); for Cmax: Cmax (Mean); for Tmax: Tmax (Mean); for half-life: t1/2 (Mean)
[21] = Cytotoxicity assay; settings: mouse
[22] = Cytotoxicity (Table 10); settings: human, HeLa-Ohio cells
[23] = test system: rig S15 mRNA; assay: Cellular housekeeping mRNA control by RT-PCR in MDBK cells; type: cell-based, bovine; settings: up to 125 μM
[24] = Cytotoxicity (Table 10); settings: human, KB cells
[25] = Cytotoxicity (Table 10); settings: rhesus monkey, MA-104 cells
[26] = test system: West Nile virus; assay: microbe, parasite or virus in culture; type: cell-based; settings: read-out: composite EC50 range, West Nile virus
[27] = Cytotoxicity (Table 10); settings: dog, MDCK cells
[28] = Human bone marrow clonogenic assay; remark: listed apart in the source
[29] = test system: DENV-2 in BHK cells; assay: Cell protection assay; type: cell-based; settings: Dengue virus, DENV2, DENV-2, BHK
[30] = 50 mg, val-mCyd 50 mg PO, Day 1
[31] = 50 mg, val-mCyd 50 mg PO, Day 15
[32] = 100 mg, val-mCyd 100 mg PO, Day 1
[33] = 100 mg, val-mCyd 100 mg PO, Day 15

For `CC1(O)C(O)C(CO)OC1n1ccc(N)nc1=O` (stereo not shown) [mCyd, 4-Amino-1-(3,4-dihydroxy-5-hydroxymethyl-3-methyl-tetrahydro-furan-2-yl)-1H-pyrimidine-2-one], the EC50 ([1]; read-out: EC50, BVDV RNA levels) was 1.7 µM, the EC90 ([1]; read-out: EC90, BVDV RNA levels) was 2.3 µM and the “in vitro stability / deamination to mUrd” value [2] was “remained essentially unchanged”. The “L-Lactate (% of Control), HepG2 Cells” value ([3]; 50 μM, 4 days) was 138.0 ± 8.9 % of Control, the “increase in lactic acid production” value ([3]; HepG2, 50 μM) was 38% and the EC50 [4] was over 200 µM. The EC50 ([5]; read-out: EC50 Sb-1) was 6 µM, the EC50 ([5]; read-out: Sb-1 (Table 8b)) was 11.5 µM and the EC50 [6] was 26 µM. The EC50 [7] was 9 µM, the EC50 ([8]; 96 h, BVDV NADL cp, de novo infection, 4 days) was 0.67 ± 0.22 µM and the EC50 ([8]; BVDV MOI 0.16) was about 2.2 µM. The “Antiviral Efficacy EC4 log” value [9] was 6.03 ± 1.41 μM, the EC50 ([9]; Bovine viral diarrhea virus isolates and strains) was 0.3 ± 0.07 µM and the EC90 ([9]; Bovine viral diarrhea virus isolates and strains, read-out: Antiviral Efficacy EC90) was 0.87 ± 0.18 µM. The CC50 at 4 days [10] was 36 µM, the EC50 [11] was 2.3 µM and the CC50 [12] was 13.9 ± 3.2 µM. The EC50 [13] was 2.57 ± 0.35 µM, the EC90 ([13]; read-out: Antiviral Efficacy EC90) was 4.63 ± 0.72 µM and the EC50 [14] was over 0.8 µM. For the same compound, the CC50 at 4 days [15] was 38 ± 9 µM, the CC50 at 4 days [16] was over 250 µM and the CC50 ([17]; CC50, HFF, HCMV row) was 67 to 73 µg/mL. It also gave a CC50 ([17]; CC50, HFF, HSV-1 row) of over 100 µg/mL, a CC50 ([17]; CC50, HFF, HSV-2 row) of over 100 µg/mL and a CC50 ([17]; CC50, HFF, VZV row) of 67.8 µg/mL. It also gave a CC50 ([17]; CC50, rapidly proliferating HFF) of 16.9 µM, a CC50 [18] of over 50 µg/mL and an EC50 [19] of over 200 µM. For the same compound, the AUC(0-inf) [20, 30] was 3120 ng·h/mL, the AUC(0-inf) [20, 31] was 3170 ng·h/mL and the Cmax [20, 30] was 428 ng/mL. For the same compound, the Cmax [20, 31] was 363 ng/mL, the Tmax [20, 30] was 2.5 h and the Tmax [20, 31] was 2.2 h. The half-life [20, 30] was 4.1 h, the half-life [20, 31] was 4.6 h and the AUC(0-inf) [20, 32] was 6900 ng·h/mL. It also gave an AUC(0-inf) [20, 33] of 7670 ng·h/mL, a Cmax [20, 32] of 982 ng/mL and a Cmax [20, 33] of 1050 ng/mL. The Tmax [20, 32] was 2.6 h, the Tmax [20, 33] was 2 h and the half-life [20, 32] was 4.4 h. The half-life [20, 33] was 4.2 h, the CC50 [21] was 2.4 µM and the CC50 [22] was at least 20 µg/mL. The “effect on level of rig S15 cellular mRNA control” value [23] was “No effect”, the CC50 [24] was > 200 µM and 20 µg/mL to 30 µg/mL and the CC50 [25] was 200 µM. The CC50 ([25]; CC50, MA-104, Parainfluenza type 3 row) was over 200 µM, the EC50 [26] was 46 to 97 µM and the CC50 ([27]; Influenza A/H1N1 row) was over 200 µM. It also gave a CC50 ([27]; Influenza A/H3N2 row) of 45 to 65 µM, a CC50 ([27]; Influenza B row) of 55 to 140 µM and a CC50 [28] of 14.1 ± 4.5 µM. The EC50 [29] was 95 µM.
